Measured values as given in the CheMixHub viscosity set.

Assay: xn = mol fraction of the nth substance listed

O=S(=O)([O-])[O-].O=S(=O)([O-])[O-].O=S(=O)([O-])[O-].[Al+3].[Al+3] + O
viscosity [mPa·s], 101 kPa
Conditions	298.15 K	323.15 K
x1 = 0.0016	1.12	0.597
x1 = 0.00272	–	0.734
x1 = 0.00291	–	0.743
x1 = 0.0032	1.36	0.695
x1 = 0.00384	–	0.839
x1 = 0.00482	–	0.96
x1 = 0.0053	1.93	0.925
x1 = 0.005932	–	1.074
x1 = 0.0071	2.44	1.15
x1 = 0.007109	–	1.242
x1 = 0.008241	–	1.431
x1 = 0.0087	3.17	1.44
x1 = 0.009379	–	1.686
x1 = 0.0105	4.21	1.82
x1 = 0.0106	–	1.989
x1 = 0.01197	–	2.398
x1 = 0.0123	5.95	2.41
x1 = 0.01327	–	2.919
x1 = 0.0145	8.96	3.43
x1 = 0.0147	–	3.571
x1 = 0.0154	10.5	3.96
x1 = 0.01608	–	4.31
x1 = 0.0161	11.8	4.33
x1 = 0.017	14.4	5.17
x1 = 0.01732	–	4.975
x1 = 0.0184	18	6.12
x1 = 0.01889	–	6.121

NCCNCCN + CCO
viscosity [mPa·s], 100 kPa
Conditions	x2 = 0.1023	x2 = 0.2001	x2 = 0.3566	x2 = 0.492	x2 = 0.6001	x2 = 0.6952	x2 = 0.7703	x2 = 0.8378	x2 = 0.897	x2 = 0.9523
298.15 K	5.92	5.97	5.63	5.02	4.36	3.7	3.08	2.51	1.97	1.49
303.15 K	4.85	4.98	4.76	4.25	3.74	3.17	2.69	2.2	1.76	1.34
308.15 K	4.21	4.33	4.13	3.69	3.24	2.79	2.4	1.99	1.62	1.24

C=C1CCC2CC1C2(C)C (configuration not stated) + COC(C)(C)C
298.15 K, 101.33 kPa
Conditions	viscosity [mPa·s]
x2 = 0.0493	1.485
x2 = 0.1076	1.364
x2 = 0.2248	1.142
x2 = 0.354	0.93
x2 = 0.439	0.8092
x2 = 0.5239	0.7038
x2 = 0.6457	0.5826
x2 = 0.7594	0.4855
x2 = 0.8663	0.41
x2 = 0.9007	0.3873
x2 = 0.9651	0.3495

NCCN1CCNCC1 + O
101.3 kPa
Conditions	viscosity [mPa·s]
298 K, x1 = 0.00152	0.92
298 K, x1 = 0.00275	0.95
298 K, x1 = 0.00774	1.11
298 K, x1 = 0.0161	1.38
298 K, x1 = 0.0255	1.82
303 K, x1 = 0.00152	0.87
303 K, x1 = 0.00275	0.89
303 K, x1 = 0.00774	1
303 K, x1 = 0.0161	1.25
303 K, x1 = 0.0255	1.66
303.2 K, x1 = 0.015	1.241
303.2 K, x1 = 0.024	1.651
303.2 K, x1 = 0.034	2.17
303.2 K, x1 = 0.044	2.861
303.2 K, x1 = 0.056	3.918
303.2 K, x1 = 0.07	4.722
303.2 K, x1 = 0.085	5.556
313 K, x1 = 0.00152	0.74
313 K, x1 = 0.00275	0.78
313 K, x1 = 0.00774	0.85
313 K, x1 = 0.0161	1.04
313 K, x1 = 0.0255	1.32
313.2 K, x1 = 0.015	1.001
313.2 K, x1 = 0.024	1.312
313.2 K, x1 = 0.034	1.589
313.2 K, x1 = 0.044	2.074
313.2 K, x1 = 0.056	2.839
313.2 K, x1 = 0.07	3.558
313.2 K, x1 = 0.085	4.367
323 K, x1 = 0.00152	0.6
323 K, x1 = 0.00275	0.61
323 K, x1 = 0.00774	0.69
323 K, x1 = 0.0161	0.83
323 K, x1 = 0.0255	1.03

CCCCOCCOCCOCCCC + CC1COC(=O)O1
viscosity [mPa·s], 101.3 kPa
Conditions	298.15 K	308.15 K	318.15 K
x1 = 0.007	2.562	2.064	1.704
x1 = 0.0158	2.574	2.086	1.721
x1 = 0.059	2.676	2.174	1.735
x1 = 0.1317	2.748	2.244	1.768
x1 = 0.2166	2.735	2.263	1.773
x1 = 0.3183	2.7	2.187	1.729
x1 = 0.356	2.674	2.161	1.712
x1 = 0.3871	2.649	2.141	1.695
x1 = 0.4126	2.635	2.129	1.686
x1 = 0.4929	2.579	2.086	1.649
x1 = 0.5658	2.534	2.051	1.623
x1 = 0.5869	2.526	2.045	1.62
x1 = 0.6616	2.487	2.013	1.595
x1 = 0.7058	2.475	1.999	1.584
x1 = 0.748	2.469	1.992	1.566
x1 = 0.8266	2.402	1.954	1.537
x1 = 0.9183	2.323	1.899	1.489

CCCCC(=O)O + CCCCCCO
viscosity [mPa·s], 100 kPa
Conditions	x1 = 0.0922	x1 = 0.1786	x1 = 0.2643	x1 = 0.3791	x1 = 0.4723	x1 = 0.5917	x1 = 0.6782	x1 = 0.7647	x1 = 0.8655	x1 = 0.9463
293.15 K	5.13	4.89	4.64	4.3	4	3.61	3.33	3.04	2.7	2.43
303.15 K	3.78	3.63	3.47	3.24	3.04	2.79	2.6	2.4	2.17	1.99
313.15 K	2.84	2.74	2.63	2.49	2.36	2.18	2.06	1.93	1.78	1.65
323.15 K	2.18	2.11	2.03	1.93	1.85	1.74	1.66	1.57	1.48	1.4

CCCCOCCOCCOCCCC + COC(=O)OC
viscosity [mPa·s], 101.3 kPa
Conditions	298.15 K	308.15 K	318.15 K
x1 = 0.0176	0.616	0.546	0.488
x1 = 0.0289	0.635	0.562	0.498
x1 = 0.0543	0.678	0.599	0.523
x1 = 0.0894	0.743	0.65	0.56
x1 = 0.1574	0.862	0.747	0.634
x1 = 0.2414	1.012	0.867	0.726
x1 = 0.3274	1.169	0.991	0.82
x1 = 0.3389	1.189	1.005	0.83
x1 = 0.44	1.367	1.131	0.947
x1 = 0.5417	1.518	1.266	1.043
x1 = 0.636	1.653	1.377	1.125
x1 = 0.7193	1.745	1.451	1.182
x1 = 0.8605	1.934	1.606	1.289
x1 = 0.9421	2.047	1.677	1.351
